The values that follow come from US8802664B2 (Bioproject, priority 2010, dated 2014).

Bounds are passed on as bounds.

One test deals with T1, human H4 receptor (Homo sapiens, UniProt Q9H3N8).
T1 construct: expressed in transfected cells
T1 sequence (Q9H3N8 whole entry): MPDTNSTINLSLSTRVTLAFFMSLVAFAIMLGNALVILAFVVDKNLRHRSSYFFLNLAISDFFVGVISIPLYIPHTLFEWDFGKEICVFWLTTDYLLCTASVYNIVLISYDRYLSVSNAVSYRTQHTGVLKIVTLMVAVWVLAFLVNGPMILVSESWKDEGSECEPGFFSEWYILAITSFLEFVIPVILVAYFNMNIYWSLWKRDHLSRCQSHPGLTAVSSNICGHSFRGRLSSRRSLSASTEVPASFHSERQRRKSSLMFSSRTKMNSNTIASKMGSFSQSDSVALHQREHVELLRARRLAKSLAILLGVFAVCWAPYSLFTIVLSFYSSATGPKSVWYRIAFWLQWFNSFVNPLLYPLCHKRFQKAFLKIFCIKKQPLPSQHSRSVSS
Description: [3H]Histamine binding on membranes of CHO cells stably expressing human H4 receptor.
Conditions: not given
The essentials: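 Nonspecific binding defined with 10 μM JNJ 7777120. Bound radioactivity collected on polyethyleneimine-treated GF/B filters and counted by liquid scintillation.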
Turning to `CN1CCC(OC(c2cccc(SCCCCO)c2)c2nc3ccccc3s2)CC1` (centres unmarked) [Example 256, 4-{3-[benzothiazol-2-yl(1-methylpiperidin-4-yloxy)methyl]phenylsulfanyl}butan-1-ol], the Ki or IC50 activity class was less than 30 nM.

The compound `CN1CCC(OC(c2cccc(OCCCO)c2)c2nc3ccccc3s2)CC1` (centres unmarked) [Example 258, 3-{3-[benzothiazol-2-yl(1-methylpiperidin-4-yloxy)methyl]phenoxy}propan-1-ol] displayed a Ki or IC50 activity class of less than 300 nM.

The compound `CNC(=O)CSc1cccc(C(OC2CCN(C)CC2)c2nc3ccccc3s2)c1` (centres unmarked) [Example 259, 2-{3-[benzothiazol-2-yl(1-methylpiperidin-4-yloxy)methyl]phenylsulfanyl}-N-methylacetamide] showed a Ki or IC50 activity class of less than 300 nM.

Compound `CN1CCC(OC(c2cccc(SCC(N)=O)c2)c2nc3ccccc3s2)CC1` (centres unmarked) [Example 263, 2-{3-[benzothiazol-2-yl(1-methylpiperidin-4-yloxy)methyl]phenylsulfanyl}acetamide] gave a Ki or IC50 activity class of less than 1000 nM.

As for `CN1CCC(OC(c2cccc(SCC(=O)NN)c2)c2nc3ccccc3s2)CC1` (centres unmarked) [Example 264, {3-[benzothiazol-2-yl(1-methylpiperidin-4-yloxy)methyl]phenylsulfanyl}acetic acid hydrazide], the Ki or IC50 activity class was less than 300 nM.

On to `CN1CCC(OC(c2cccc(OCc3ccncc3)c2)c2nc3ccccc3s2)CC1` (centres unmarked) [Example 265, 2-{(1-methylpiperidin-4-yloxy)[3-(pyridin-4-ylmethoxy)phenyl]methyl}benzothiazole], for which the Ki or IC50 activity class is less than 300 nM.

Compound `CN1CCC(OC(c2cccc(OCCCCO)c2)c2nc3ccccc3s2)CC1` (centres unmarked) [Example 266, 4-{3-[benzothiazol-2-yl(1-methylpiperidin-4-yloxy)methyl]phenoxy}butan-1-ol] showed a Ki or IC50 activity class of less than 300 nM.

`CN1CCC(OC(c2cccc(OCc3ccco3)c2)c2nc3ccccc3s2)CC1` (centres unmarked) [Example 267, 2-[[3-(furan-2-ylmethoxy)phenyl](1-methylpiperidin-4-yloxy)methyl]benzothiazole] yielded a Ki or IC50 activity class of less than 30 nM.

Turning to `CN1CCC(OC(c2cccc(SCC3(CCO)CC3)c2)c2nc3ccccc3s2)CC1` (centres unmarked) [Example 268, 2-(1-{3-[benzothiazol-2-yl(1-methylpiperidin-4-yloxy)methyl]phenylsulfanylmethyl}cyclopropyl)ethanol], the Ki or IC50 activity class was less than 300 nM.

`CN1CCC(OC(c2cccc(SCCN)c2)c2nc3ccccc3s2)CC1` (centres unmarked) [Example 269, 2-{3-[benzothiazol-2-yl(1-methylpiperidin-4-yloxy)methyl]phenylsulfanyl}ethylamine] yielded a Ki or IC50 activity class of less than 30 nM.

For `CC(=O)COCc1cccc(C(OC2CCN(C)CC2)c2nc3ccccc3s2)c1` (centres unmarked) [Example 270, 1-{3-[benzothiazol-2-yl(1-methylpiperidin-4-yloxy)methyl]benzyloxy}propan-2-one], the Ki or IC50 activity class is less than 1000 nM.

`CCSc1cc(C(OC2CCN(C)CC2)c2nc3ccccc3[nH]2)ccc1C` (centres unmarked) [Example 274, 2-[(3-ethylsulfanyl-4-methylphenyl)(1-methylpiperidin-4-yloxy)methyl]-1H-benzimidazole]: the Ki or IC50 activity class was less than 300 nM.

The compound `CC(=O)COCC#Cc1cccc(C(OC2CCN(C)CC2)c2nc3ccccc3s2)c1` (centres unmarked) [Example 275, 1-(3-{3-[benzothiazol-2-yl(1-methylpiperidin-4-yloxy)methyl]phenyl}prop-2-ynyloxy)-propan-2-one] showed a Ki or IC50 activity class of less than 300 nM.

Regarding `CC(O)COCC#Cc1cccc(C(OC2CCN(C)CC2)c2nc3ccccc3s2)c1` (centres unmarked) [Example 276, 1-(3-{3-[benzothiazol-2-yl(1-methylpiperidin-4-yloxy)methyl]phenyl}prop-2-ynyloxy)-propan-2-ol], the Ki or IC50 activity class was less than 30 nM.

In turn, `COCCOc1cccc(C(OC2CCN(C)CC2)c2nc3ccccc3s2)c1` (centres unmarked) [Example 277, 2-[[3-(2-methoxyethoxy)phenyl](1-methylpiperidin-4-yloxy)methyl]benzothiazole] registered a Ki or IC50 activity class of less than 300 nM.

As to `CN1CCC(OC(c2cccc(SCCNC(=N)N)c2)c2nc3ccccc3[nH]2)CC1` (centres unmarked) [Example 278, N-(2-{3-[(1H-benzimidazol-2-yl)(1-methylpiperidin-4-yloxy)methyl]phenylsulfanyl}ethyl)guanidine], the Ki or IC50 activity class is less than 30 nM.

Take `CNCCOc1cccc(C(OC2CCN(C)CC2)c2nc3ccccc3s2)c1` (centres unmarked) [Example 279, (2-{3-[benzothiazol-2-yl(1-methylpiperidin-4-yloxy)methyl]phenoxy}ethyl)methyl-amine]: the Ki or IC50 activity class is less than 1000 nM.

`CN1CCC(OC(c2cccc(OC(F)(F)F)c2)c2nc3ccccc3[nH]2)CC1` (centres unmarked) [Example 280, 2-[(1-methylpiperidin-4-yloxy)(3-trifluoromethoxy-phenyl)methyl]-1H-benzimidazole] displayed a Ki or IC50 activity class of less than 300 nM.

With `CN1CCC(OC(c2nc3ccccc3s2)c2ccccc2Cl)CC1` (centres unmarked) [Example 281, 2-[(2-Chlorophenyl)(1-methylpiperidin-4-yloxy)methyl]benzothiazole], the Ki or IC50 activity class is less than 1000 nM.

In the case of `CN1CCC(OC(c2cccc(C#CCCN)c2)c2nc3ccccc3s2)CC1` (centres unmarked) [Example 282, 4-{3-[benzothiazol-2-yl(1-methylpiperidin-4-yloxy)methyl]phenyl}but-3-ynylamine], the Ki or IC50 activity class was less than 1000 nM.

Compound `CN1CCC(OC(c2cccc(OCc3ccccn3)c2)c2nc3ccccc3s2)CC1` (centres unmarked) [Example 283, 2-{(1-methylpiperidin-4-yloxy)[3-(pyridin-2-ylmethoxy)phenyl]methyl}benzothiazole] yielded a Ki or IC50 activity class of less than 30 nM.

Compound `CN1CCC(OC(c2cccc(OCc3cccnc3)c2)c2nc3ccccc3s2)CC1` (centres unmarked) [Example 284, 2-{(1-methylpiperidin-4-yloxy)[3-(pyridin-3-ylmethoxy)phenyl]methyl}benzothiazole] returned a Ki or IC50 activity class of less than 300 nM.

As to `CN1CCC(OC(c2cccc(OCC3CCCCC3)c2)c2nc3ccccc3s2)CC1` (centres unmarked) [Example 285, 2-[(3-Cyclohexylmethoxyphenyl)(1-methylpiperidin-4-yloxy)methyl]benzothiazole], the Ki or IC50 activity class is less than 1000 nM.

In turn, `CN1CCC(OC(c2cccc(C#CCCN)c2)c2nc3ccccc3[nH]2)CC1` (centres unmarked) [Example 286, 4-{3-[(1H-benzimidazol-2-yl)(1-methylpiperidin-4-yloxy)methyl]phenyl}but-3-ynylamine] returned a Ki or IC50 activity class of less than 300 nM.

`CN1CCC(OC(c2cccc(C#CCCCN)c2)c2nc3ccccc3s2)CC1` (centres unmarked) [Example 287, 5-{3-[benzothiazol-2-yl(1-methylpiperidin-4-yloxy)methyl]phenyl}pent-4-ynylamine] gave a Ki or IC50 activity class of less than 30 nM.

In the case of `CN1CCC(OC(c2cccc(SCC(O)CO)c2)c2nc3ccccc3[nH]2)CC1` (centres unmarked) [Example 288, 3-{3-[(1H-benzimidazol-2-yl)(1-methylpiperidin-4-yloxy)methyl]phenylsulfanyl}propane-1,2-diol], the Ki or IC50 activity class was less than 1000 nM.

In turn, `CN1CCC(OC(c2cccc(CCCCCN)c2)c2nc3ccccc3s2)CC1` (centres unmarked) [Example 289, 5-{3-[benzothiazol-2-yl(1-methylpiperidin-4-yloxy)methyl]phenyl}pentylamine] had a Ki or IC50 activity class of less than 30 nM.

The compound `CCN1CCC(OC(c2cccc(OCCN)c2)c2nc3ccccc3s2)CC1` (centres unmarked) [Example 290, 2-{3-[benzothiazol-2-yl(1-ethyl-piperidin-4-yloxy)methyl]phenoxy}ethylamine] returned a Ki or IC50 activity class of less than 300 nM.

Compound `CN1CCC(OC(c2cccc(SCCCCCCO)c2)c2nc3ccccc3s2)CC1` (centres unmarked) [Example 292, 6-{3-[benzothiazol-2-yl(1-methylpiperidin-4-yloxy)methyl]phenylsulfanyl}hexan-1-ol] had a Ki or IC50 activity class of less than 300 nM.

In turn, `CN1CCC(OC(c2cccc(CCCCN)c2)c2nc3ccccc3[nH]2)CC1` (centres unmarked) [Example 293, 4-{3-[(1H-benzimidazol-2-yl)(1-methylpiperidin-4-yloxy)methyl]phenyl}butylamine] gave a Ki or IC50 activity class of less than 300 nM.

Regarding `CN1CCC(OC(c2cccc(C#CCCCN)c2)c2nc3ccccc3[nH]2)CC1` (centres unmarked) [Example 294, 5-{3-[(1H-benzimidazol-2-yl)(1-methylpiperidin-4-yloxy)methyl]phenyl}pent-4-ynylamine], the Ki or IC50 activity class is less than 30 nM.

As for `CN1CCC(OC(c2cccc(SCCCCCCO)c2)c2nc3ccccc3[nH]2)CC1` (centres unmarked) [Example 295, 6-{3-[(1H-benzimidazol-2-yl)(1-methylpiperidin-4-yloxy)methyl]phenylsulfanyl}hexan-1-ol], the Ki or IC50 activity class is less than 300 nM.

Take `CN1CCC(OC(c2cccc(C#CCN)c2)c2nc3ccccc3s2)CC1` (centres unmarked) [Example 296, 3-{3-[benzothiazol-2-yl(1-methylpiperidin-4-yloxy)methyl]phenyl}prop-2-ynylamine]: the Ki or IC50 activity class is less than 300 nM.

Take `CN1CCC(OC(c2ccc3c(c2)OCO3)c2nc3ccccc3[nH]2)CC1` (centres unmarked) [Example 297, 2-[benzo[1,3]dioxol-5-yl(1-methylpiperidin-4-yloxy)methyl]-1H-benzimidazole]: the Ki or IC50 activity class was less than 300 nM.

`CN1CCC(OC(c2cccc(SCCNC3=NCCS3)c2)c2nc3ccccc3[nH]2)CC1` (centres unmarked) [Example 299, (2-{3-[(1H-benzimidazol-2-yl)(1-methylpiperidin-4-yloxy)methyl]phenyl-sulfanyl}ethyl)(4,5-dihydrothiazol-2-yl)amine] yielded a Ki or IC50 activity class of less than 1000 nM.

Compound `CN1CCC(OC(c2cccc(OCCCCN)c2)c2nc3ccccc3s2)CC1` (centres unmarked) [Example 301, 4-{3-[benzothiazol-2-yl(1-methylpiperidin-4-yloxy)methyl]phenoxy}butylamine] gave a Ki or IC50 activity class of less than 30 nM.

Consider `CN1CCC(OC(c2cccc(SCCNC(=N)N)c2)c2nc3ccccc3s2)CC1` (centres unmarked) [Example 302, N-(2-{3-[benzothiazol-2-yl(1-methylpiperidin-4-yloxy)methyl]phenylsulfanyl}ethyl)guanidine], for which the Ki or IC50 activity class is less than 30 nM.

Staying with this test, now noted: read-out: Activity (Ki or IC50).
As for `CN1CCC(OC(c2cccc(SCC3(CCO)CC3)c2)c2nc3ccccc3[nH]2)CC1` (centres unmarked) [Example 257], the Ki (usually a measure of affinity in units of concentration, obtained from inhibition or displacement) was less than 1000 nM.
